Test results as given in PubChem BioAssay (NCI).
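Exposure lasted 48 hours, with cells grown in 96-well plates and compounds tested at five concentrations. TGI is the concentration that stops growth completely.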

Key:
Experiment in all cases: NCI anticancer screen, dose series, 48 h
786-0 renal = system: 786-0 renal
A498 renal = system: A498 renal
A549 NSCLC = system: A549 NSCLC
ACHN renal = system: ACHN renal
BT-549 breast = system: BT-549 breast
CAKI-1 renal = system: CAKI-1 renal
CCRF-CEM leukemia = system: CCRF-CEM leukemia
COLO 205 colon = system: COLO 205 colon
DU-145 prostate = system: DU-145 prostate
EKVX NSCLC = system: EKVX NSCLC
HCC-2998 colon = system: HCC-2998 colon
HCT-116 colon = system: HCT-116 colon
HCT-15 colon = system: HCT-15 colon
HL-60(TB) leukemia = system: HL-60(TB) leukemia
HOP-62 NSCLC = system: HOP-62 NSCLC
HOP-92 NSCLC = system: HOP-92 NSCLC
HS 578T breast = system: HS 578T breast
HT29 colon = system: HT29 colon
IGROV1 ovarian = system: IGROV1 ovarian
K-562 leukemia = system: K-562 leukemia
KM12 colon = system: KM12 colon
LOX IMVI melanoma = system: LOX IMVI melanoma
M14 melanoma = system: M14 melanoma
MALME-3M melanoma = system: MALME-3M melanoma
MCF7 breast = system: MCF7 breast
MDA-MB-435 = system: MDA-MB-435
MDA-N = system: MDA-N
MOLT-4 leukemia = system: MOLT-4 leukemia
NCI-H226 lung = system: NCI-H226 lung
NCI-H23 lung = system: NCI-H23 lung
NCI-H460 lung = system: NCI-H460 lung
NCI-H522 lung = system: NCI-H522 lung
NCI/ADR-RES ovarian = system: NCI/ADR-RES ovarian
OVCAR-3 ovarian = system: OVCAR-3 ovarian
OVCAR-4 ovarian = system: OVCAR-4 ovarian
OVCAR-5 ovarian = system: OVCAR-5 ovarian
OVCAR-8 ovarian = system: OVCAR-8 ovarian
PC-3 prostate = system: PC-3 prostate
RPMI-8226 leukemia = system: RPMI-8226 leukemia
SF-268 CNS = system: SF-268 CNS
SF-295 CNS = system: SF-295 CNS
SF-539 CNS = system: SF-539 CNS
SK-MEL-2 melanoma = system: SK-MEL-2 melanoma
SK-MEL-28 melanoma = system: SK-MEL-28 melanoma
SK-MEL-5 melanoma = system: SK-MEL-5 melanoma
SK-OV-3 ovarian = system: SK-OV-3 ovarian
SN12C renal = system: SN12C renal
SNB-19 CNS = system: SNB-19 CNS
SNB-75 CNS = system: SNB-75 CNS
SR leukemia = system: SR leukemia
SW-620 colon = system: SW-620 colon
T-47D breast = system: T-47D breast
TK-10 renal = system: TK-10 renal
U251 CNS = system: U251 CNS
UACC-257 melanoma = system: UACC-257 melanoma
UACC-62 melanoma = system: UACC-62 melanoma
UO-31 renal = system: UO-31 renal
MDA-MB-231 breast = system: MDA-MB-231 breast
RXF 393 renal = system: RXF 393 renal

Measured: TGI

COc1cc(C(c2ccccc2)N2C(=O)CC[C@H]2C(=O)O)cc(OC)c1OC (stereo partly drawn)
not listed: MDA-MB-231 breast | RXF 393 renal
> 100 µM: all other assays above

NS(=O)(=O)c1ccc(-c2ccc([As](=O)(O)O)cc2)cc1
not listed: A498 renal | CCRF-CEM leukemia | HCC-2998 colon
> 100 µM: all other assays above
